According to the supplement of paper PMC10307832:

Key:
Assay in all cases: relative viability (nuclei count vs DMSO), 5 days (fraction); higher = more cells survive
[1] = compound: COc1cc2nc(N3CCCN(C)CC3)nc(NC3CCN(Cc4ccccc4)CC3)c2cc1OC + CC(C)C[C@H](NC(=O)[C@H](Cc1ccccc1)NC(=O)c1cnccn1)B(O)O [Bortezomib] (partner 0.002 µM)
Summary of the method: (§1)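 Lung cancer cell lines in 1536-well plates got either a single drug or a fixed anchor-drug dose together with five library-drug doses (not always all listed) in √10 steps, by pin tool, on the day after seeding. Nuclei were counted after 5 days, and relative viability is the treated-to-vehicle ratio of nuclei counts. Values are medians of duplicate plates.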

[2] = compound: COc1cc2nc(N3CCCN(C)CC3)nc(NC3CCN(Cc4ccccc4)CC3)c2cc1OC + CS(=O)(=O)CCNCc1ccc(-c2ccc3ncnc(Nc4ccc(OCc5cccc(F)c5)c(Cl)c4)c3c2)o1 [Lapatinib] (partner 2 µM)
Summary of the method: as §1

[3] = compound: COc1cc2nc(N3CCCN(C)CC3)nc(NC3CCN(Cc4ccccc4)CC3)c2cc1OC + C[C@]1(O)C[C@@H](c2nc(-c3ccc4ccc(-c5ccccc5)nc4c3)c3c(N)nccn32)C1 [Linsitinib] (partner 1 µM)
Summary of the method: as §1

[4] = compound: COc1cc2nc(N3CCCN(C)CC3)nc(NC3CCN(Cc4ccccc4)CC3)c2cc1OC + Cc1cc(Nc2cc(N3CCN(C)CC3)nc(Sc3ccc(NC(=O)C4CC4)cc3)n2)n[nH]1 [Tozasertib] (partner 0.1 µM)
Summary of the method: as §1

[5] = compound: COc1cc2nc(N3CCCN(C)CC3)nc(NC3CCN(Cc4ccccc4)CC3)c2cc1OC + O=C(c1cc(Cc2n[nH]c(=O)c3ccccc23)ccc1F)N1CCN(C(=O)C2CC2)CC1 [Olaparib] (partner 8 µM)
Summary of the method: as §1

NCI-H596
relative viability ([1]; first compound 0.2 µM): 1.21 | relative viability ([1]; first compound 0.6325 µM): 1.17 | relative viability ([1]; first compound 2 µM): 0.959 | relative viability ([1]; first compound 6.325 µM): 0.763 | relative viability ([2]; first compound 0.2 µM): 1.1 | relative viability ([2]; first compound 0.6325 µM): 0.563 | relative viability ([2]; first compound 2 µM): 1.24 | relative viability ([2]; first compound 6.325 µM): 0.837 | relative viability ([3]; first compound 0.2 µM): 1.12 | relative viability ([3]; first compound 0.6325 µM): 1.02 | relative viability ([3]; first compound 2 µM): 1.17 | relative viability ([3]; first compound 6.325 µM): 0.992 | relative viability ([4]; first compound 0.2 µM): 0.961 | relative viability ([4]; first compound 0.6325 µM): 1.1 | relative viability ([4]; first compound 2 µM): 0.91 | relative viability ([4]; first compound 6.325 µM): 0.893 | relative viability ([5]; first compound 0.2 µM): 0.677 | relative viability ([5]; first compound 0.6325 µM): 0.721 | relative viability ([5]; first compound 2 µM): 0.736 | relative viability ([5]; first compound 6.325 µM): 0.672

H3255
relative viability ([1]; first compound 0.2 µM): 0.782 | relative viability ([1]; first compound 0.6325 µM): 0.944 | relative viability ([1]; first compound 2 µM): 0.726 | relative viability ([1]; first compound 6.325 µM): 0.43 | relative viability ([2]; first compound 0.2 µM): 0.235 | relative viability ([2]; first compound 0.6325 µM): 0.273 | relative viability ([2]; first compound 2 µM): 0.258 | relative viability ([2]; first compound 6.325 µM): 0.165 | relative viability ([3]; first compound 0.2 µM): 0.983 | relative viability ([3]; first compound 0.6325 µM): 0.992 | relative viability ([3]; first compound 2 µM): 1.04 | relative viability ([3]; first compound 6.325 µM): 0.998 | relative viability ([4]; first compound 0.2 µM): 0.604 | relative viability ([4]; first compound 0.6325 µM): 0.851 | relative viability ([4]; first compound 2 µM): 0.641 | relative viability ([4]; first compound 6.325 µM): 0.742 | relative viability ([5]; first compound 0.2 µM): 0.592 | relative viability ([5]; first compound 0.6325 µM): 0.552 | relative viability ([5]; first compound 2 µM): 0.541 | relative viability ([5]; first compound 6.325 µM): 0.562

NCI-H647
relative viability ([1]; first compound 0.2 µM): 0.967 | relative viability ([1]; first compound 0.6325 µM): 1 | relative viability ([1]; first compound 2 µM): 1.35 | relative viability ([1]; first compound 6.325 µM): 0.449 | relative viability ([2]; first compound 0.2 µM): 1.16 | relative viability ([2]; first compound 0.6325 µM): 0.967 | relative viability ([2]; first compound 2 µM): 1.11 | relative viability ([2]; first compound 6.325 µM): 0.417 | relative viability ([3]; first compound 0.2 µM): 1.17 | relative viability ([3]; first compound 0.6325 µM): 1.03 | relative viability ([3]; first compound 2 µM): 1.14 | relative viability ([3]; first compound 6.325 µM): 0.599 | relative viability ([4]; first compound 0.2 µM): 0.486 | relative viability ([4]; first compound 0.6325 µM): 0.272 | relative viability ([4]; first compound 2 µM): 0.366 | relative viability ([4]; first compound 6.325 µM): 0.207 | relative viability ([5]; first compound 0.2 µM): 0.517 | relative viability ([5]; first compound 0.6325 µM): 0.443 | relative viability ([5]; first compound 2 µM): 0.537 | relative viability ([5]; first compound 6.325 µM): 0.242

NCI-H2023
relative viability ([1]; first compound 0.2 µM): 1.02 | relative viability ([1]; first compound 0.6325 µM): 0.967 | relative viability ([1]; first compound 2 µM): 1.05 | relative viability ([1]; first compound 6.325 µM): 0.329 | relative viability ([2]; first compound 0.2 µM): 0.87 | relative viability ([2]; first compound 0.6325 µM): 0.836 | relative viability ([2]; first compound 2 µM): 0.961 | relative viability ([2]; first compound 6.325 µM): 0.115 | relative viability ([3]; first compound 0.2 µM): 0.767 | relative viability ([3]; first compound 0.6325 µM): 0.643 | relative viability ([3]; first compound 2 µM): 0.7 | relative viability ([3]; first compound 6.325 µM): 0.405 | relative viability ([4]; first compound 0.2 µM): 0.368 | relative viability ([4]; first compound 0.6325 µM): 0.301 | relative viability ([4]; first compound 2 µM): 0.46 | relative viability ([4]; first compound 6.325 µM): 0.109 | relative viability ([5]; first compound 0.2 µM): 0.424 | relative viability ([5]; first compound 0.6325 µM): 0.476 | relative viability ([5]; first compound 2 µM): 0.48 | relative viability ([5]; first compound 6.325 µM): 0.177

NCI-H23
relative viability ([1]; first compound 0.2 µM): 1 | relative viability ([1]; first compound 0.6325 µM): 0.943 | relative viability ([1]; first compound 2 µM): 1.2 | relative viability ([1]; first compound 6.325 µM): 0.918 | relative viability ([2]; first compound 0.2 µM): 1.02 | relative viability ([2]; first compound 0.6325 µM): 1.03 | relative viability ([2]; first compound 2 µM): 1.37 | relative viability ([2]; first compound 6.325 µM): 1.02 | relative viability ([3]; first compound 0.2 µM): 0.562 | relative viability ([3]; first compound 0.6325 µM): 0.733 | relative viability ([3]; first compound 2 µM): 0.833 | relative viability ([3]; first compound 6.325 µM): 0.53 | relative viability ([4]; first compound 0.2 µM): 0.423 | relative viability ([4]; first compound 0.6325 µM): 0.385 | relative viability ([4]; first compound 2 µM): 0.481 | relative viability ([4]; first compound 6.325 µM): 0.337 | relative viability ([5]; first compound 0.2 µM): 0.299 | relative viability ([5]; first compound 0.6325 µM): 0.271 | relative viability ([5]; first compound 2 µM): 0.344 | relative viability ([5]; first compound 6.325 µM): 0.285

NCI-H520
relative viability ([1]; first compound 0.2 µM): 0.792 | relative viability ([1]; first compound 0.6325 µM): 0.623 | relative viability ([1]; first compound 2 µM): 0.777 | relative viability ([1]; first compound 6.325 µM): 0.217 | relative viability ([2]; first compound 0.2 µM): 0.892 | relative viability ([2]; first compound 0.6325 µM): 0.894 | relative viability ([2]; first compound 2 µM): 0.92 | relative viability ([2]; first compound 6.325 µM): 0.3 | relative viability ([3]; first compound 0.2 µM): 1.13 | relative viability ([3]; first compound 0.6325 µM): 0.931 | relative viability ([3]; first compound 2 µM): 1.1 | relative viability ([3]; first compound 6.325 µM): 0.747 | relative viability ([4]; first compound 0.2 µM): 0.405 | relative viability ([4]; first compound 0.6325 µM): 0.405 | relative viability ([4]; first compound 2 µM): 0.437 | relative viability ([4]; first compound 6.325 µM): 0.507 | relative viability ([5]; first compound 0.2 µM): 0.332 | relative viability ([5]; first compound 0.6325 µM): 0.321 | relative viability ([5]; first compound 2 µM): 0.324 | relative viability ([5]; first compound 6.325 µM): 0.144

NCI-H460
relative viability ([1]; first compound 0.2 µM): 1.04 | relative viability ([1]; first compound 0.6325 µM): 1.05 | relative viability ([1]; first compound 2 µM): 1.14 | relative viability ([1]; first compound 6.325 µM): 0.864 | relative viability ([2]; first compound 0.2 µM): 0.9 | relative viability ([2]; first compound 0.6325 µM): 0.979 | relative viability ([2]; first compound 2 µM): 0.902 | relative viability ([2]; first compound 6.325 µM): 0.487 | relative viability ([3]; first compound 0.2 µM): 0.73 | relative viability ([3]; first compound 0.6325 µM): 0.792 | relative viability ([3]; first compound 2 µM): 0.762 | relative viability ([3]; first compound 6.325 µM): 0.267 | relative viability ([4]; first compound 0.2 µM): 0.535 | relative viability ([4]; first compound 0.6325 µM): 0.399 | relative viability ([4]; first compound 2 µM): 0.361 | relative viability ([4]; first compound 6.325 µM): 0.625 | relative viability ([5]; first compound 0.2 µM): 0.425 | relative viability ([5]; first compound 0.6325 µM): 0.397 | relative viability ([5]; first compound 2 µM): 0.37 | relative viability ([5]; first compound 6.325 µM): 0.323

EKVX
relative viability ([1]; first compound 0.2 µM): 1.09 | relative viability ([1]; first compound 0.6325 µM): 0.993 | relative viability ([1]; first compound 2 µM): 1.18 | relative viability ([1]; first compound 6.325 µM): 0.963 | relative viability ([2]; first compound 0.2 µM): 0.194 | relative viability ([2]; first compound 0.6325 µM): 0.218 | relative viability ([2]; first compound 2 µM): 0.232 | relative viability ([2]; first compound 6.325 µM): 0.223 | relative viability ([3]; first compound 0.2 µM): 0.986 | relative viability ([3]; first compound 0.6325 µM): 0.922 | relative viability ([3]; first compound 2 µM): 1.07 | relative viability ([3]; first compound 6.325 µM): 0.891 | relative viability ([4]; first compound 0.2 µM): 0.41 | relative viability ([4]; first compound 0.6325 µM): 0.34 | relative viability ([4]; first compound 2 µM): 0.476 | relative viability ([4]; first compound 6.325 µM): 0.542 | relative viability ([5]; first compound 0.2 µM): 0.838 | relative viability ([5]; first compound 0.6325 µM): 0.873 | relative viability ([5]; first compound 2 µM): 0.808 | relative viability ([5]; first compound 6.325 µM): 0.776
